According to ChEMBL document CHEMBL5518215, “Unlocking Antibacterial Potential: Key-Site-Based Regulation of Antibacterial Spectrum of Peptides” (J Med Chem, 2024):

How the values were obtained:
Escherichia coli [1] = experiment: Antimicrobial activity against Escherichia coli 25922 assessed as absence bacterial growth measured after 18 to 24 hrs incubation by NCCLS method; type: functional; settings: time 18-24 hrs
Escherichia coli [2] = experiment: Antimicrobial activity against Escherichia coli K88 assessed as absence bacterial growth measured after 18 to 24 hrs incubation by NCCLS method; type: functional; settings: time 18-24 hrs
Salmonella typhimurium [3] = experiment: Antimicrobial activity against Salmonella typhimurium 14028 assessed as absence bacterial growth measured after 18 to 24 hrs incubation by NCCLS method; type: functional, Salmonella enterica subsp. enterica serovar Typhimurium; settings: Salmonella enterica, time 18-24 hrs
[4] = Antimicrobial activity against Salmonella pullorum C7913 assessed as absence bacterial growth measured after 18 to 24 hrs incubation by NCCLS method; type: functional, Salmonella enterica subsp. enterica serovar Pullorum; settings: Salmonella enterica, time 18-24 hrs
Pseudomonas aeruginosa [5] = experiment: Antimicrobial activity against Pseudomonas aeruginosa 27853 assessed as absence bacterial growth measured after 18 to 24 hrs incubation by NCCLS method; type: functional; settings: time 18-24 hrs
Acinetobacter baumannii [6] = experiment: Antimicrobial activity against Acinetobacter baumannii 1.6769 assessed as absence bacterial growth measured after 18 to 24 hrs incubation by NCCLS method; type: functional; settings: time 18-24 hrs
Enterococcus faecalis [7] = experiment: Antimicrobial activity against Enterococcus faecalis 29212 assessed as absence bacterial growth measured after 18 to 24 hrs incubation by NCCLS method; type: functional; settings: time 18-24 hrs
Listeria monocytogenes [8] = experiment: Antimicrobial activity against Listeria monocytogenes 1.10753 assessed as absence bacterial growth measured after 18 to 24 hrs incubation by NCCLS method; type: functional; settings: time 18-24 hrs
Bacillus cereus [9] = experiment: Antimicrobial activity against Bacillus cereus 1.932 assessed as absence bacterial growth measured after 18 to 24 hrs incubation by NCCLS method; type: functional; settings: time 18-24 hrs
Staphylococcus aureus [10] = experiment: Antimicrobial activity against Staphylococcus aureus 29213 assessed as absence bacterial growth measured after 18 to 24 hrs incubation by NCCLS method; type: functional; settings: time 18-24 hrs
Staphylococcus aureus [11] = experiment: Antimicrobial activity against Methicillin-resistant Staphylococcus aureus 43300 assessed as absence bacterial growth measured after 18 to 24 hrs incubation by NCCLS method; type: functional; settings: time 18-24 hrs
[12] = test system: Staphylococcus epidermidis; experiment: Antimicrobial activity against Staphylococcus epidermidis 12228 assessed as absence bacterial growth measured after 18 to 24 hrs incubation by NCCLS method; type: functional; settings: time 18-24 hrs
Staphylococcus aureus [13] = experiment: Antimicrobial activity against Staphylococcus aureus 29213 assessed as absence bacterial growth measured after 18 to 24 hrs incubation by NCCLS m; type: functional; settings: time 18-24 hrs
Escherichia coli [14] = experiment: Antimicrobial activity against Escherichia coli 25922 assessed as bacterial killing measured after 16 hrs incubation; type: functional
Escherichia coli [15] = experiment: Antimicrobial activity against Escherichia coli K88 assessed as bacterial killing measured after 16 hrs incubation; type: functional
Salmonella typhimurium [16] = experiment: Antimicrobial activity against Salmonella typhimurium 14028 assessed as bacterial killing measured after 16 hrs incubation; type: functional, Salmonella enterica subsp. enterica serovar Typhimurium; settings: Salmonella enterica
Salmonella typhimurium [17] = experiment: Antimicrobial activity against Salmonella typhimurium C7731 assessed as bacterial killing measured after 16 hrs incubation; type: functional, Salmonella enterica subsp. enterica serovar Typhimurium; settings: Salmonella enterica
[18] = Antimicrobial activity against Salmonella pullorum C7913 assessed as bacterial killing measured after 16 hrs incubation; type: functional, Salmonella enterica subsp. enterica serovar Pullorum; settings: Salmonella enterica
Pseudomonas aeruginosa [19] = experiment: Antimicrobial activity against Pseudomonas aeruginosa 27853 assessed as bacterial killing measured after 16 hrs incubation; type: functional
Acinetobacter baumannii [20] = experiment: Antimicrobial activity against Acinetobacter baumannii 1.6769 assessed as bacterial killing measured after 16 hrs incubation; type: functional
Enterococcus faecalis [21] = experiment: Antimicrobial activity against Enterococcus faecalis 29212 assessed as bacterial killing measured after 16 hrs incubation; type: functional
Listeria monocytogenes [22] = experiment: Antimicrobial activity against Listeria monocytogenes 1.10753 assessed as bacterial killing measured after 16 hrs incubation; type: functional
Bacillus cereus [23] = experiment: Antimicrobial activity against Bacillus cereus 1.932 assessed as bacterial killing measured after 16 hrs incubation; type: functional
Staphylococcus aureus [24] = experiment: Antimicrobial activity against Staphylococcus aureus 29213 assessed as bacterial killing measured after 16 hrs incubation; type: functional
Staphylococcus aureus [25] = experiment: Antimicrobial activity against Methicillin-resistant Staphylococcus aureus 43300 assessed as bacterial killing measured after 16 hrs incubation; type: functional
[26] = test system: Staphylococcus epidermidis; experiment: Antimicrobial activity against Staphylococcus epidermidis 12228 assessed as bacterial killing measured after 16 hrs incubation; type: functional
Staphylococcus aureus [27] = experiment: Antimicrobial activity against Staphylococcus aureus 25923 assessed as bacterial killing measured after 16 hrs incubation; type: functional
Salmonella typhimurium [28] = experiment: Antimicrobial activity against Salmonella typhimurium C7731 assessed as absence bacterial growth measured after 18 to 24 hrs incubation by NCCLS method; type: functional, Salmonella enterica subsp. enterica serovar Typhimurium; settings: Salmonella enterica, time 18-24 hrs
Escherichia coli [29] = experiment: Antimicrobial activity against Escherichia coli 25922 assessed as absence bacterial growth measured after 18 to 24 hrs incubation in presence of 50% serum by NCCLS method; type: functional; settings: time 18-24 hrs
Escherichia coli [30] = experiment: Antimicrobial activity against Escherichia coli 25922 assessed as absence bacterial growth measured after 18 to 24 hrs incubation in presence of 25% serum by NCCLS method; type: functional; settings: time 18-24 hrs
Escherichia coli [31] = experiment: Antimicrobial activity against Escherichia coli 25922 assessed as absence bacterial growth measured after 18 to 24 hrs incubation in presence of 12.5% serum by NCCLS method; type: functional; settings: time 18-24 hrs
Escherichia coli [32] = experiment: Antimicrobial activity against Escherichia coli 25922 assessed as absence bacterial growth measured after 18 to 24 hrs incubation in presence of NaCl by NCCLS method; type: functional; settings: time 18-24 hrs
Escherichia coli [33] = experiment: Antimicrobial activity against Escherichia coli 25922 assessed as absence bacterial growth measured after 18 to 24 hrs incubation in presence of KCl by NCCLS method; type: functional; settings: time 18-24 hrs
Escherichia coli [34] = experiment: Antimicrobial activity against Escherichia coli 25922 assessed as absence bacterial growth measured after 18 to 24 hrs incubation in presence of NH4Cl by NCCLS method; type: functional; settings: time 18-24 hrs
Escherichia coli [35] = experiment: Antimicrobial activity against Escherichia coli 25922 assessed as absence bacterial growth measured after 18 to 24 hrs incubation in presence of MgCl2 by NCCLS method; type: functional; settings: time 18-24 hrs
Escherichia coli [36] = experiment: Antimicrobial activity against Escherichia coli 25922 assessed as absence bacterial growth measured after 18 to 24 hrs incubation in presence of ZnCl2 by NCCLS method; type: functional; settings: time 18-24 hrs
Escherichia coli [37] = experiment: Antimicrobial activity against Escherichia coli 25922 assessed as absence bacterial growth measured after 18 to 24 hrs incubation in presence of FeCl3 by NCCLS method; type: functional; settings: time 18-24 hrs
Erythrocyte = experiment: Hemolytic activity in human RBC at effective concentration measured after 1 hr by microplate reader analysis; type: toxicity, cell-based
[38] = Cytotoxicity against mouse RAW264.7 cells assessed as cell survival rate measured after 8 hrs by MTT assay; type: toxicity, cell-based
[39] = Cytotoxicity against human HEK-293T cells assessed as cell survival rate measured after 8 hrs by MTT assay; type: toxicity, cell-based
[40] = Cytotoxicity against porcine IPEC-J2 cells assessed as cell survival rate measured after 8 hrs by MTT assay; type: toxicity, cell-based, Sus scrofa; settings: pig

H-AKLWLKAAKLWLKAAKLWLKA-NH2
MIC (Escherichia coli [1]): 1 µM | MIC (Escherichia coli [2]): 0.5 µM | MIC (Salmonella typhimurium [3]): 1 µM | MIC [4]: 2 µM | MIC (Pseudomonas aeruginosa [5]): 2 µM | MIC (Acinetobacter baumannii [6]): 1 µM | MIC (Enterococcus faecalis [7]): 4 µM | MIC (Listeria monocytogenes [8]): 16 µM | MIC (Bacillus cereus [9]): 2 µM | MIC (Staphylococcus aureus [10]): 2 µM | MIC (Staphylococcus aureus [11]): 2 µM | MIC [12]: 2 µM | MIC (Staphylococcus aureus [13]): 2 µM | MBC (Escherichia coli [14]): 1 µM | MBC (Escherichia coli [15]): 0.5 µM | MBC (Salmonella typhimurium [16]): 2 µM | MBC (Salmonella typhimurium [17]): 0.5 µM | MBC [18]: 8 µM | MBC (Pseudomonas aeruginosa [19]): 4 µM | MBC (Acinetobacter baumannii [20]): 1 µM | MBC (Enterococcus faecalis [21]): 4 µM | MBC (Listeria monocytogenes [22]): 32 µM | MBC (Bacillus cereus [23]): 2 µM | MBC (Staphylococcus aureus [24]): 2 µM | MBC (Staphylococcus aureus [25]): 4 µM | MBC [26]: 4 µM | MBC (Staphylococcus aureus [27]): 4 µM | MIC (Salmonella typhimurium [28]): 0.5 µM

H-GKLWLKGCKLWLKGGKLWLKG-NH2
MIC (Escherichia coli [1]): 8 µM | MIC (Escherichia coli [2]): 2 µM | MIC (Salmonella typhimurium [3]): 8 µM | MIC [4]: 2 µM | MIC (Pseudomonas aeruginosa [5]): 32 µM | MIC (Acinetobacter baumannii [6]): 8 µM | MIC (Enterococcus faecalis [7]): > 32 µM | MIC (Listeria monocytogenes [8]): > 32 µM | MIC (Bacillus cereus [9]): 4 µM | MIC (Staphylococcus aureus [10]): > 32 µM | MIC (Staphylococcus aureus [11]): 32 µM | MIC [12]: > 32 µM | MIC (Staphylococcus aureus [13]): > 32 µM | MBC (Escherichia coli [14]): 8 µM | MBC (Escherichia coli [15]): 2 µM | MBC (Salmonella typhimurium [16]): 16 µM | MBC (Salmonella typhimurium [17]): 32 µM | MBC [18]: 4 µM | MBC (Pseudomonas aeruginosa [19]): 32 µM | MBC (Acinetobacter baumannii [20]): 16 µM | MBC (Enterococcus faecalis [21]): > 32 µM | MBC (Listeria monocytogenes [22]): > 32 µM | MBC (Bacillus cereus [23]): 4 µM | MBC (Staphylococcus aureus [24]): > 32 µM | MBC (Staphylococcus aureus [25]): 32 µM | MBC [26]: > 32 µM | MBC (Staphylococcus aureus [27]): > 32 µM | MIC (Salmonella typhimurium [28]): 8 µM | MIC (Escherichia coli [29]): > 32 µM | MIC (Escherichia coli [30]): > 32 µM | MIC (Escherichia coli [31]): > 32 µM | MIC (Escherichia coli [32]): > 32 µM | MIC (Escherichia coli [33]): 8 µM | MIC (Escherichia coli [34]): 8 µM | MIC (Escherichia coli [35]): > 32 µM | MIC (Escherichia coli [36]): 8 µM | MIC (Escherichia coli [37]): 8 µM | HC10 (Erythrocyte): > 128 µM | IC50 at 8 h [38]: > 64 µM | IC50 at 8 h [39]: > 64 µM | IC50 at 8 h [40]: > 64 µM

H-GKLWLKGFKLWLKGGKLWLKG-NH2
MIC (Escherichia coli [1]): 2 µM | MIC (Escherichia coli [2]): 1 µM | MIC (Salmonella typhimurium [3]): 2 µM | MIC [4]: 0.5 µM | MIC (Pseudomonas aeruginosa [5]): 4 µM | MIC (Acinetobacter baumannii [6]): 2 µM | MIC (Enterococcus faecalis [7]): 2 µM | MIC (Listeria monocytogenes [8]): > 32 µM | MIC (Bacillus cereus [9]): 2 µM | MIC (Staphylococcus aureus [10]): 4 µM | MIC (Staphylococcus aureus [11]): 2 µM | MIC [12]: 4 µM | MIC (Staphylococcus aureus [13]): 4 µM | MBC (Escherichia coli [14]): 2 µM | MBC (Escherichia coli [15]): 1 µM | MBC (Salmonella typhimurium [16]): 8 µM | MBC (Salmonella typhimurium [17]): 32 µM | MBC [18]: 2 µM | MBC (Pseudomonas aeruginosa [19]): 16 µM | MBC (Acinetobacter baumannii [20]): 2 µM | MBC (Enterococcus faecalis [21]): 4 µM | MBC (Listeria monocytogenes [22]): > 32 µM | MBC (Bacillus cereus [23]): 2 µM | MBC (Staphylococcus aureus [24]): 4 µM | MBC (Staphylococcus aureus [25]): 8 µM | MBC [26]: 4 µM | MBC (Staphylococcus aureus [27]): 4 µM | MIC (Salmonella typhimurium [28]): 8 µM | MIC (Escherichia coli [29]): > 32 µM | MIC (Escherichia coli [30]): > 32 µM | MIC (Escherichia coli [31]): 16 µM | MIC (Escherichia coli [32]): 4 µM | MIC (Escherichia coli [33]): 4 µM | MIC (Escherichia coli [34]): 2 µM | MIC (Escherichia coli [35]): 4 µM | MIC (Escherichia coli [36]): 2 µM | MIC (Escherichia coli [37]): 2 µM | HC10 (Erythrocyte): 128 µM | IC50 at 8 h [38]: 31 µM | IC50 at 8 h [39]: 36.6 µM | IC50 at 8 h [40]: 35.7 µM
